What was measured:
[1] = tested on: phosphorus and calcium levels in the urine of rats; assay: Urinary excretion of phosphate and calcium in rats (16 h overnight urine); type: in vivo, rat; conditions: rats, oral gavage, 16 h post-dose
Rat NHE3 = molecular target: T1, Rat NHE3 (Rattus norvegicus, UniProt P26433); assay: Cell-based NHE3 activity under prompt conditions (OK cells, BCECF pH recovery), rat NHE3; conditions: prompt conditions
T1 construct: expressed in transfected cells; host or cells: Opossum kidney (OK) cells (ATCC), electroporation
T1 sequence (P26433 29-831): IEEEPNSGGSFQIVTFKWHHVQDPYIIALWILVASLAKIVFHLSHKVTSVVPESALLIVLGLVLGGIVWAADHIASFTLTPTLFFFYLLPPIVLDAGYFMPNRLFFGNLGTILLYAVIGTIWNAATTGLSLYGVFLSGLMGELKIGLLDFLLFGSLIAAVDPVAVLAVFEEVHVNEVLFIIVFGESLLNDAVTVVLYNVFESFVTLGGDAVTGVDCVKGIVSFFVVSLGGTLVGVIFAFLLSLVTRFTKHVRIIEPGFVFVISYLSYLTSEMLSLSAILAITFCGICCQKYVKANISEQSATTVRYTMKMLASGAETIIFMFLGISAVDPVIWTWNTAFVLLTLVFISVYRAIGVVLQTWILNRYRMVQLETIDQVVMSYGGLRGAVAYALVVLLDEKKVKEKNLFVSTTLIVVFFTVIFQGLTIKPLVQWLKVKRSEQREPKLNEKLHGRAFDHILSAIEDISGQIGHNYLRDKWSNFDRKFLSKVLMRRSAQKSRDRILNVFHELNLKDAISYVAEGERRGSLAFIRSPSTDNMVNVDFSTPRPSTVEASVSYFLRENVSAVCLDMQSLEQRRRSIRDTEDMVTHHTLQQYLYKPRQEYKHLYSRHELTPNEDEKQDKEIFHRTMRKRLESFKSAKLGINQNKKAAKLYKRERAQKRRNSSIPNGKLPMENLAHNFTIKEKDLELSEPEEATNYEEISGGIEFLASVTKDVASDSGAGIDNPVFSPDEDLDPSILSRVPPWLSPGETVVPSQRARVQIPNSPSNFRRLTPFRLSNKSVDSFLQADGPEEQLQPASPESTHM
In short: (§1)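 OK cells electroporated with rat or human NHE3 were loaded with 5 μM BCECF-AM in NH4Cl-HEPES (pH 7.4) for 30 min at room temperature, then acid-loaded 10 min in Na+-free choline-HEPES.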

[2] = tested on: absorption of sodium from the intestinal lumen; assay: Inhibition of intestinal sodium absorption: urinary sodium (uNa) 16 h after single oral dose in rats; type: in vivo, rat; conditions: oral gavage, 16 h post-dose
In short: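 Eight-week-old Sprague-Dawley rats (n=6) given single oral gavage of compound or water vehicle in the late afternoon, then kept in metabolic cages with chow and water ad libitum. Urine collected over 16 h; sodium quantified by ion chromatography and expressed as % of vehicle mean, compared by one-way ANOVA with Dunnett's test.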

Human NHE3 = molecular target: T2, Human NHE3 (Homo sapiens, UniProt P48764); assay: Cell-based NHE3 activity under prompt conditions (OK cells, BCECF pH recovery), human NHE3; conditions: prompt conditions
T2 construct: expressed in transfected cells; host or cells: Opossum kidney (OK) cells (ATCC), electroporation
T2 sequence (P48764 26-834): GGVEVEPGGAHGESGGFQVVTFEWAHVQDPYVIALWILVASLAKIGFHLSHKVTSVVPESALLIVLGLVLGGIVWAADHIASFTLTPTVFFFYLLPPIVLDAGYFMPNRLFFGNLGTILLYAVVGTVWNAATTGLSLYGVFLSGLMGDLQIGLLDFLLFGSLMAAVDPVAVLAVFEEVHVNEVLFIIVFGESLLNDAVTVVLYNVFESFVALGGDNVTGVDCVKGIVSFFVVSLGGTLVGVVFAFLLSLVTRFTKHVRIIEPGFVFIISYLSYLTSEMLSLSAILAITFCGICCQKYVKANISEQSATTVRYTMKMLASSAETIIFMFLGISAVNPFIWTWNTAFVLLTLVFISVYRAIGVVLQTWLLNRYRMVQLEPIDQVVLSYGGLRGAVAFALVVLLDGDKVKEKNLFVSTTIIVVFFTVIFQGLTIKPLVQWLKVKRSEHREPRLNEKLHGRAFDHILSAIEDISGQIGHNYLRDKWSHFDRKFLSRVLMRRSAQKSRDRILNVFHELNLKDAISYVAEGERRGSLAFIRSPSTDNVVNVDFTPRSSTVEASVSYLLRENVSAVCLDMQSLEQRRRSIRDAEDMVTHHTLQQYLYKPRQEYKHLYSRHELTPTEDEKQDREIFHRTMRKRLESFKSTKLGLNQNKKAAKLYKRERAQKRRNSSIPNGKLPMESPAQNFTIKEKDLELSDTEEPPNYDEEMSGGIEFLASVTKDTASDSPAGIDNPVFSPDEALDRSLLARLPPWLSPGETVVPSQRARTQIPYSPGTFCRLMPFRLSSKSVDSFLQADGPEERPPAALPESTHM
In short: as §1

[3] = tested on: absorption of sodium from the intestinal lumen; assay: Fecal form score (FFS) 16 h after oral dose in rats; type: in vivo, rat; conditions: oral gavage, 16 h post-dose, scale 1-5
In short: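 Eight-week-old Sprague-Dawley rats (n=6) dosed by oral gavage with compound or water vehicle between 4 and 5 PM, then housed in metabolic cages with food and water ad libitum. At 16 h, fecal form scored 1 (normal pellet) to 5 (liquid streams) by two observers; group mean reported.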

Structure (SMILES) | Urine P % of control ([1]; dose 10 mg/kg) [%] | Prompt Rat NHE3 pIC50 (Rat NHE3) | Urine Na % of control ([2]; dose 10 mg/kg) [%] | Prompt Human NHE3 pIC50 (Human NHE3) | Fecal Form Score average ([3]; dose 10 mg/kg) | Urine P % of control ([1]; dose 3 mg/kg) [%] | Urine Na % of control ([2]; dose 3 mg/kg) [%] | Fecal Form Score average ([3]; dose 3 mg/kg) | IC50 (Rat NHE3; read-out: Prompt Rat NHE3 pIC50 (converted)) [nM]
O=C(NCCCCNC(=O)NCCOCCOCCNS(=O)(=O)c1ccc(O[C@H]2c3cc(Cl)cc(F)c3C[C@@H]2N2CC[C@@H](O)C2)cc1)NCCOCCOCCNS(=O)(=O)c1ccc(O[C@H]2c3cc(Cl)cc(F)c3C[C@@H]2N2CC[C@@H](O)C2)cc1 [compound 165] | 68 | <5.00 | 104 | 8.20 | 1 | – | – | – | –
CN(C)[C@H]1Cc2c(F)cc(Cl)cc2[C@@H]1Oc1ccc(S(=O)(=O)NCCOCCOCCNC(=O)NCCCCNC(=O)NCCOCCOCCNS(=O)(=O)c2ccc(O[C@H]3c4cc(Cl)cc(F)c4C[C@@H]3N(C)C)cc2)cc1 [compound 166] | 43 | <5.00 | 111 | 8.40 | 1 | – | – | – | –
CN1Cc2c(Cl)cc(Cl)cc2[C@H](c2cccc(S(=O)(=O)NCCOCCOCCNC(=O)NCCCC(CCCNC(=O)NCCOCCOCCNS(=O)(=O)c3cccc([C@@H]4CN(C)Cc5c(Cl)cc(Cl)cc54)c3)(CCCNC(=O)NCCOCCOCCNS(=O)(=O)c3cccc([C@@H]4CN(C)Cc5c(Cl)cc(Cl)cc54)c3)NC(=O)NC[C@H](O)[C@@H](O)[C@H](O)[C@H](O)CO)c2)C1 [compound 167] | – | 5.80 | – | 8.37 | – | 99 | 36 | 2 | –
CN1Cc2c(Cl)cc(Cl)cc2[C@H](c2cccc(S(=O)(=O)NCCOCCOCCNC(=O)NCCC(N)(CCNC(=O)NCCOCCOCCNS(=O)(=O)c3cccc([C@@H]4CN(C)Cc5c(Cl)cc(Cl)cc54)c3)CCNC(=O)NCCOCCOCCNS(=O)(=O)c3cccc([C@@H]4CN(C)Cc5c(Cl)cc(Cl)cc54)c3)c2)C1 [compound 168] | – | 7.35 | – | 8.13 | – | 50 | 56 | 1 | –
CC(=O)C(CCC(=O)NCCOCCOCCNS(=O)(=O)c1cccc([C@@H]2CN(C)Cc3c(Cl)cc(Cl)cc32)c1)(CCC(=O)NCCOCCOCCNS(=O)(=O)c1cccc([C@@H]2CN(C)Cc3c(Cl)cc(Cl)cc32)c1)CCC(=O)NCCOCCOCCNS(=O)(=O)c1cccc([C@@H]2CN(C)Cc3c(Cl)cc(Cl)cc32)c1 [compound 169] | – | 6.50 | – | 6.20 | – | 64 | 42 | 2 | –
CN1Cc2c(Cl)cc(Cl)cc2[C@H](c2cccc(S(=O)(=O)NCCOCCOCCNCCCC(CCC(=O)NCCOCCOCCNS(=O)(=O)c3cccc([C@@H]4CN(C)Cc5c(Cl)cc(Cl)cc54)c3)(CCC(=O)NCCOCCOCCNS(=O)(=O)c3cccc([C@@H]4CN(C)Cc5c(Cl)cc(Cl)cc54)c3)NC(=O)N3CCN(CCOCCO)CC3)c2)C1 [compound 170] | – | – | – | 7.20 | – | 34 | 31 | 2 | 79.4
CN1Cc2c(Cl)cc(Cl)cc2[C@H](c2cccc(S(=O)(=O)NCCOCCOCCNC(=O)NCCC(CCNC(=O)NCCOCCOCCNS(=O)(=O)c3cccc([C@@H]4CN(C)Cc5c(Cl)cc(Cl)cc54)c3)(CCNC(=O)NCCOCCOCCNS(=O)(=O)c3cccc([C@@H]4CN(C)Cc5c(Cl)cc(Cl)cc54)c3)NC(=O)COCC(=O)O)c2)C1 [compound 172] | – | 8.20 | – | 7.10 | – | 42 | 26 | 2 | –
